From patent US20100062068A1, “CISTUS EXTRACTS” (KREWEL […], priority 2007, published 2010)
Where two headings read alike, the source gives them in different places.

Experiment: Storage stability of nasal sprays with preservatives
Text: As the preservative, for example, benzalkonium chloride, which is often employed in the field of nasal drops, may be used. […] In addition to the free acids as such, their partially or completely neutralized salts may also be added to the nasal sprays.

SMILES | storage stability of the nasal spray (preservative in nasal spray, compared to benzalkonium chloride) | storage stability of the nasal spray
O=C(O)c1ccccc1 [benzoic acid] | significant extension of the storage stability | –
C/C=C/C=C/C(=O)O [sorbic acid] | – | significant extension of the storage stability
